Results from patent publication US9440963B2, “Compositions, formulations and methods for treating ocular diseases” (Aerpio Therapeutics Inc., priority 2013, dated 2016).
Values after ≈ are worked out from the molar mass of the structure shown. Values joined by “and” are separate entries in the source; they are usually repeats but may differ in a detail not shown here. Identical values can stand only once.

Assays:
[1] = tested on: human subjects with visual acuity loss due to diabetic macular edema; assay: Central foveal/retinal thickness by ocular coherence tomography in diabetic macular edema study (Example 35); type: in vivo
Description: At any time during the course of the study, investigators could administer additional therapy consisting of intravitreal injection of an anti-VEGF agent, for example, ranibizumab, bevacizumab and/or aflibercept, if considered by the investigator to be medically necessary. Retinal thickness as measured by ocular coherence tomography and best corrected visual acuity as measured by a standard vision test (ETDRS) were assessed at regular intervals during the 28 day active treatment phase and through the 2 month post-treatment observation phase, (Screening, Day 1 [baseline], Day 7, Day 14, Day 21, Day 28, Day 42, Day 56 and Day 84). The main efficacy outcomes for the study were change in CRT and visual acuity over time with treatment. […] The mean change in Central Foveal Thickness was −289 μm, approximately double the reduction seen after ranibizumab injection in the study in FIG. 1. FIG. 5 represents the results of a single patient. The eye having the greater Central Foveal Thickness was chosen as the Study Eye. […] At week 3 (21 days, indicated by arrow) the fellow eye was treated with 0.5 mg of ranibizumab by injection. At week 6 (42 days, indicated by arrow) the treated eye was treated with 0.5 mg of ranibizumab. […] As a result, there was a pronounced reduction in CFT in the study eye from day 21 to day 28 (approximately 250 µm). […] At week 6, the study eye was treated with an intravitreal injection of 0.5 mg of ranibizumab. […] Compared to the study depicted in FIG. 1 wherein the average change in CFT at one month after ranibizumab injection was approximately […], the combination disclosed method provided substantially greater reductions at 2-4 weeks following ranibizumab injection. FIG. 6 represents the results of a single patient. The eye having the greater Central Foveal Thickness was chosen as the Study Eye. […] At week 4 (28 days, indicated by arrow) the fellow eye was rescued with 2 mg of aflibercept. […] At week 6 (42 days, indicated by arrow) the study eye was rescued with 2 mg of aflibercept. […] Unlike the results depicted for the ranibizumab protocol, there was no evidence of systemically delivered aflibercept to the Fellow Eye.

[2] = Room temperature aqueous solubility with solubilizing agents (Example 36); type: physicochemical
From the text: The room temperature aqueous solubility (mg/mL) of the a compound (4-{(S)-2-[(S)-2-methoxycarbonylamino)-3-phenylpropanamido]-2-[2-(thiophen-2-yl)thiazol-4-yl]ethyl}phenylsulfamic acid) in water, HPβCD, Poloxamer 407, and sulfobutylether-β-cyclodextrin, is provided in TABLE XXVII. Solubility in saline for the test compound is reduced presumably due to the common ion effect.
The solubility (mg/mL) of the test compound in mixtures of HPβCD and PEG400 is illustrated in TABLE XXVIII.

Compound | Central Foveal Reduction, single patient eye ([1]; 5 mg subcutaneously twice daily for 28 days, subsequently ranibizumab (0.3 or 0.5 mg) or aflibercept (2 mg) intravitreal, 14-28 days post ranibizumab or aflibercept, 7 eyes) | fall of Central Foveal Thickness of the fellow eye ([1]; single patient (FIG. 5), 5 mg s.c. twice daily from day one, fellow eye 0.5 mg ranibizumab at week 3, by week 4 (28 days)) [μm] | overall reduction in CFT of the study eye ([1]; single patient (FIG. 5), by week 8, after 0.5 mg ranibizumab at week 6) | reduction in CFT in the study eye ([1]; single patient (FIG. 5), from day 21 to day 28) | reduction of CFT in the non-treated eye from onset of the study ([1]; single patient (FIG. 6)) [μm] | reduction of CFT in the study eye from onset of the study ([1]; single patient (FIG. 6)) | CFT reduction of the Fellow eye after rescue ([1]; single patient (FIG. 6), 5 mg s.c. twice daily from day one, fellow eye rescued with 2 mg aflibercept at week 4) | CFT reduction of the Study eye after rescue ([1]; single patient (FIG. 6), study eye rescued with 2 mg aflibercept at week 6) | solubility in saline ([2]; room temperature, compared with water) | Solubility ([2]; aqueous with cosolvent or surfactant or cyclodextrin) [mg/mL] | Solubility ([2]; water) [mg/mL]
COC(=O)N[C@@H](Cc1ccccc1)C(=O)N[C@@H](Cc1ccc(NS(=O)(=O)O)cc1)c1csc(-c2cccs2)n1 | 50-100 μm and 150-200 μm and 200-250 μm and 300-350 μm and 350-400 μm and 450-500 μm | 350 | approximately 500 μm | approximately 250 µm | ~280 | approximately 300 μm | approximately 400 μm | approximately 300 μm | reduced | – | –
COC(=O)N[C@@H](Cc1ccccc1)C(=O)N[C@@H](Cc1ccc(NS(=O)(=O)O)cc1)c1nc(-c2cccs2)cs1 | – | – | – | – | – | – | – | – | – | 42 (≈ 71.6 mM) | 38 (≈ 64.8 mM)
